Laboratory results taken from ChEMBL document CHEMBL4699577, “Highly Oxygenated Caryophyllene-Type Sesquiterpenes from a Plant-Associated Fungus, Pestalotiopsis hainanensis, and Their Biosynthetic Gene Cluster” (J Nat Prod, 2020).

Tests used:
HL-60 = experiment: Growth inhibition of human HL-60 cells after 96 hrs by MTT assay; format: functional, cell-based; conditions: HL-60, 96 h
THP-1 = experiment: Growth inhibition of human THP-1 cells after 96 hrs by MTT assay; format: functional, cell-based; conditions: THP-1, 96 h

Q: How did the IC50 (HL-60) turn out when CO[C@@H]1[C@H]2[C@H](O)O[C@@]3([C@@H](OC(C)=O)C/C(C)=C/[C@H]1OC)[C@@H]2CC3(C)C was run?
A: 6.2 µM

Q: What about the IC50 (THP-1) of the same compound?
A: 2 µM
